Results taken from patent US20100210540A1, “USE OF THE PEPTIDE COMBINATION THYMOSIN BETA 4 AND DELTA SLEEP INDUCING PEPTIDE AS A THERAPEUTIC AGENT” (priority 2007, published 2010).
Where no end group is shown, it is not given here.

Experiments:
HIV-1III8 = experiment: HIV-1 antiviral assay in CEM-SS cells (MTS readout)
HCMV strain AD169 = experiment: HCMV plaque formation assay in MRC-5 cells; assay type: cell-based; conditions: for inhibition of HCMV plaque formation as compared to the virus control experiment: 10 micrograms per ml, 7-10 days
Text: Ganciclovir was used as positive control.

[1] = test system: Primary Human endothelial cells (HUVEC); experiment: Endothelial cell migration assay; assay type: cell-based; conditions: 10 micrograms per ml, 22 hours
Procedure: Thereafter, designated concentration of testing peptides—10 micrograms per ml—was added in duplicate wells.

[2] = test system: Tumor Necrosis Factor-α (TNF-α); experiment: Th1/Th2 cytokine profiling assay: TNF-α; assay type: cell-based, Balb/c mice; conditions: 10 micrograms per ml; Ovalbumin restimulation; 72 hours
Text: (§1) The Balb/c mice (originated in 1923, it is a popular strain and is used in many different research disciplines. Also classified as an inbred from the production of 20 or more successive brother-sister matings, the Balb/c mouse is albino and small in size) were immunized on Days 1, 15, and 29 with Ovalbumin (Ovalbumin is the main protein found in egg white, commonly used to stimulate an immunological reaction in test animals) in PBS (5 micrograms/injection). On day 50, spleens of the mice were harvested (3 weeks after last boost with Ovalbumin). Cells were cultured (2×10^5/well in triplicate) and incubated with culture medium or test peptides—10 micrograms per ml—for 30 min. Thereafter, additional Ovalbumin was added to the cells at 10 micrograms/ml for in vitro restimulation of the cells. 72 hours later, cell supernatants were harvested and assayed using the Becton Dickinson Mouse Th1fTh2 Cytokine CBA Kit. This kit can be used to measure Interleukin-2 (IL-2), Interleukin-4 (IL-4), Interleukin-5 (IL-5), Interferon-γ (IFN-γ), and Tumor Necrosis Factor-α (TNF-α) protein levels in a single sample. The kit performance has been optimized for analysis of physiologically relevant concentrations (pg/ml levels) of specific cytokine proteins in tissue culture supernatants and serum samples.

RAW 264.7 cells = experiment: Phagocytosis assay (Fluorescein-labeled Escherichia coli, flow cytometry); assay type: cell-based, Mouse; conditions: 10 micrograms per ml
Procedure: RAW 264.7 (Mouse leukaemic monocyte macrophage cell line) cells were obtained from ATCC and grown in RPMI 1640 medium containing 10% FBS. Cells were incubated in 12×75 mm tubes at 37° C. with test peptides—10 micrograms per ml—for 30 min prior to adding Fluorescein-labeled Escherichia coli bacteria as the agent to be ingested. After the cells were incubated for additional 60 min at 37° C. and allowed to ingest the Fluorescein-labeled Escherichia coli bacteria, cells were fixed with 1% paraformaldehyde. The samples were then analyzed by flow cytometry to determine the amount of phagocytosis as a function of brightness (the greater the phagocytic activity, the more fluorescence in the macrophage population). Data are reported as % positive and the mean fluorescence intensity (MFI) of positively stained cells.

[3] = test system: hepatitis B virus (HBV) ayw strain; experiment: HBV experimental assay system (secreted HBV DNA, TaqMan PCR); assay type: cell-based; conditions: 10 micrograms per ml; HepG2-2.2.15 cells; six days
Interleukin-4 (IL-4) = experiment: Th1/Th2 cytokine profiling assay: IL-4; assay type: cell-based, Balb/c mice; conditions: 10 micrograms per ml; Ovalbumin restimulation; 72 hours
Text: as §1

Interferon-γ (IFN-γ) = experiment: Th1/Th2 cytokine profiling assay: IFN-γ; assay type: cell-based, Balb/c mice; conditions: 10 micrograms per ml; Ovalbumin restimulation; 72 hours
Text: as §1

Interleukin-5 (IL-5) = experiment: Th1/Th2 cytokine profiling assay: IL-5; assay type: cell-based, Balb/c mice; conditions: 10 micrograms per ml; Ovalbumin restimulation; 72 hours
Text: as §1

HUVEC = experiment: Endothelial tube formation assay; assay type: cell-based, human; conditions: 10 micrograms per ml, 20 hours
Text: Positive control was vehicle only.

[4] = test system: cyclic AMP generation in human peripheral blood mononuclear cells (PBMC); experiment: cAMP induction assay (ELISA); assay type: cell-based; conditions: 10 micrograms per ml; 10 min at 37° C.
Text: Adenosine 3′,5′-cyclic monophosphate (cyclic AMP; cAMP) is one of the most important “second messengers” involved as a modulator of physiological processes. cAMP is also involved in regulating neuronal, glandular, cardiovascular, immune and other functions and actions in a regulatory way. For being a second messenger, cAMP has the following characteristics to work effectively: 1) Amplification—when a few peptide molecules signal the cell, it needs to respond with a signal that is strong enough to get a job done without repeated high levels of stimulation. 2) Control—eventually a response must be shut down, and there are instances when its necessary to respond a little or a lot—so control is needed. 3)—Specificity—when a peptide is utilized, a given cell should respond in a specific way. Not all cells will respond to this peptide and therefore they cannot have the same effect in all the cells. Elevated levels of cAMP in human cells are associated with the suppression of cell activation.
The cAMP kit was used as an immunoassay for the quantitative determination of cyclic AMP generation in human peripheral blood mononuclear cells (PBMC). […]; 50 micrograms per ml), or test peptides—10 micrograms per ml—were added. […]. NaOH was added to neutralize the samples. Plates were centrifuged for 15 min at 2500 rpm and the supernatants removed. […]

[5] = Th1/Th2 cytokine profiling assay: IL-2; assay type: cell-based, Balb/c mice; conditions: 10 micrograms per ml; Ovalbumin restimulation; 72 hours
Text: as §1

Compound | antiviral activity of positive control compounds (HIV-1III8) | production of TNF-alpha in murine spleen cells (change) [2] | inhibition of HCMV plaque formation as compared to the virus control experiment (HCMV strain AD169) [%] | inhibition of HBV replication on tested liver cells [3] | production of IL-4 in murine spleen cells (induced by) (Interleukin-4 (IL-4)) [%] | production of IFN-γ in murine spleen cells (decreased by) (Interferon-γ (IFN-γ)) [%] | production of IL-5 in murine spleen cells (change) (Interleukin-5 (IL-5)) | inhibition of the tube formation of human endothelial cells (HUVEC) [%] | cAMP formation in PBMC (induced by) [4] | production of IL-2 in murine spleen cells (induced by) [5] | other results
Cc1cn([C@H]2C[C@H](N=[N+]=[N-])[C@@H](CO)O2)c(=O)[nH]c1=O [AZT] | expected levels of antiviral activity | – | – | – | – | – | – | – | – | – | –
Nc1nc(O)c2ncn(COC(CO)CO)c2n1 [Ganciclovir, reference compound] | – | – | – | – | – | – | – | – | – | – | antiviral activity of positive control compound (HCMV strain AD169; positive control): expected levels of antiviral activity
CC(C)(C)NC(=O)[C@@H]1CN(Cc2cccnc2)CCN1C[C@@H](O)C[C@@H](Cc1ccccc1)C(=O)N[C@H]1c2ccccc2C[C@H]1O [indinavir] | expected levels of antiviral activity | – | – | – | – | – | – | – | – | – | –
Ac-Ser-Asp-Lys-Pro-Asp-Met-Ala-Glu-Ile-Glu-Lys-Phe-Asp-Lys-Ser-Lys-Leu-Lys-Lys-Thr-Glu-Thr-Gln-Glu-Lys-Asn-Pro-Leu-Pro-Ser-Lys-Glu-Thr-Ile-Glu-Gln-Glu-Lys-Gln-Ala-Gly-Glu-Ser-OH (SDKPDMAEIEKFDKSKLKKTETQEKNPLPSKETIEQEKQAGES; printed: Ser-Asp-Lys-Pro-Asp-Met-Ala-Glu-Ile-Glu-Lys-Phe-Asp-Lys-Ser-Lys-Leu-Lys-Lys-Thr-Glu-Thr-Gln-Glu-Lys-Asn-Pro-Leu-Pro-Ser-Lys-Glu-Thr-Ile-Glu-Gln-Glu-Lys-Gln-Ala-Gly-Glu-Ser-) [Peptide 1] | – | did not significantly change | 1.0 | no effect | 31.6 | 52.7 | did not significantly change | 23 | 15.8% | did not significantly change | inhibition of the migration of human endothelial cells [1]: 3%; phagocytosis induced, as compared to the control experiment (RAW 264.7 cells; 30 min preincubation, 60 min ingestion): 45.7%
Trp-Ala-Gly-Gly-Asp-Ala-Ser-Gly-Glu-OH (WAGGDASGE-OH) [Peptide 2] | – | did not significantly change | 4.4 | no effect | 70.6 | 40.8 | did not significantly change | 3 | no effects | 38.1% | inhibitory effects on the phagocytic activity of murine macrophages (RAW 264.7 cells): no inhibitory effects
